This is an account of results in the METLIN SMRT retention time set (Domingo-Almenara et al. 2019).

A short description of the series: gradient 5% acetonitrile 3 min, to 50% in 2 min, to 85% in 15 min, held 3 min, 100 µL/min. As to conditions: column: Zorbax Extend-C18 2.1 x 50 mm; eluents: water / acetonitrile, 0.1% formic acid. In short, it runs like this:
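Retention time was recorded from adduct peaks, which were picked computationally and each inspected manually. Pure standards ran in mixtures of ~100 molecules on HPLC coupled to a quadrupole time-of-flight mass spectrometer, in positive and negative ionization mode, through a Zorbax Extend-C18 column (2.1 × 50 mm, 1.8 μm) at 100 μL/min. Eluents were water and acetonitrile, each with 0.1% formic acid.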
As to `Cc1ccccc1S(=O)(=O)N1CCC(c2noc(-c3ccccn3)n2)C1` (centres undefined), the RP-LC retention time amounted to 900 s.

The molecule `Cc1cc(=O)n(CC(=O)N2CCc3ccccc32)c(N)n1` gave an RP-LC retention time of 608 s.

For `CCCc1noc(-c2ccnc(-n3ncc(C(=O)N4CCSCC4)c3C)c2)n1`, the RP-LC retention time was determined as 974 s. With `CC1Oc2ccccc2N(CC(=O)N2CCN(c3cc(=O)n(C)c(=O)n3C)CC2)C1=O` (centres undefined) the figure was 656 s.

Consider `Cc1c(S(=O)(=O)CCNC(=O)NCc2ccc(F)cc2)c2ccccc2n1C`, for which the RP-LC retention time was 737 s.

With `Cc1cc(N2CCCC2)nc(N2CCN(C(=O)CC3CCCC3)CC2)n1`, the RP-LC retention time is 694 s. With `Cn1cc(S(=O)(=O)N2CCCCC2)cc1C(=O)N1CCN(c2cccc(Cl)c2)CC1` the figure was 1050 s; with `CSc1cccc(NC(=O)Cn2ccn3nc(-c4ccccc4)c(CO)c3c2=O)c1`, 852 s; with `Cc1ccc2ncn(C3CCN(S(=O)(=O)c4ccc(Cl)cc4)CC3)c(=O)c2c1`, 970 s. The figure for `CCn1nc(C)c(CCN(C)C(=O)Cn2nc3n(c2=O)CCC(N)CC3)c1C` (centres undefined) is 515 s; for `COc1ccccc1CC(=O)Nc1ccc(-c2nc(Cn3cccn3)c(C)o2)cc1` it is 869 s. The figure for `CN(C)S(=O)(=O)c1ccc(NC(=O)N2CCCC(C(=O)Nc3ccc(F)cc3)C2)s1` (centres undefined) is 830 s. `Cc1ccn2c(Nc3ccc4c(c3)OCO4)c(-c3ccc(O)cc3)nc2c1`: the RP-LC retention time stood at 629 s. With `COc1ccccc1NC(=O)Cn1nc2c(Oc3ccc(Cl)cc3)nccn2c1=O` the figure was 859 s; with `Cc1ccc(CNC(=O)N2CC(N(C3CCOCC3)S(C)(=O)=O)C2)cc1`, 591 s; with `Cc1cccc2c(=O)n(C3CCN(S(=O)(=O)c4cccc(Cl)c4)CC3)cnc12`, 1020 s. With `Cc1ccc(N2CC(c3noc(-c4ccccc4OC(F)(F)F)n3)CC2=O)cc1` (centres undefined) the figure was 819 s; with `CCCn1c(=O)c(C)nc2cc(-c3noc(-c4cccs4)n3)ccc21`, 1120 s; with `CCOc1ccc2ncc(S(=O)(=O)c3ccc(OC)cc3)c(N3CCN(CC)CC3)c2c1`, 660 s. As for `COc1ccc(-c2nc3cc(C)ccn3c2NC(=O)Cc2cccc3ccccc23)cc1`, the RP-LC retention time is 726 s. The figure for `Cc1c2c(cc3c1[nH]c1ccccc13)C=NCC2` is 630 s; for `COc1ccccc1OCC(=O)NCCc1sc(-c2ccc(Cl)cc2)nc1C` it is 953 s; for `Cc1cc2nn(CC(=O)Nc3cc(F)ccc3C)c(=O)n2c(-c2ccccc2)n1` it is 627 s.

The molecule `CCC(=O)N1CCc2cc(N3CC(C(=O)N4CCN(C(C)C)CC4)CC3=O)ccc21` (centres undefined) came in with an RP-LC retention time of 580 s. Molecule `CCCNC(=O)C1CCCN(c2nc3ncn(CC(=O)Nc4cc(C)cc(C)c4)c(=O)c3s2)C1` (centres undefined) showed an RP-LC retention time of 759 s. The figure for `CCN1CCN(c2ncnc3sc(C(=O)NCCCOC)c(C)c23)CC1` is 563 s.

Regarding `O=C(NCc1ccc2c(c1)OCO2)C1CCN(C(=O)c2ccc(Cl)cc2)CC1`, the RP-LC retention time was 766 s. In the case of `O=C(N[C@H]1C[C@@H]2C[C@H]1N(C(=O)c1ccccn1)C2)c1ccccc1`, the RP-LC retention time was 622 s. With `O=C(Nc1ccccc1)C1CCCN(S(=O)(=O)c2c[nH]c(C(=O)N3CCCCCC3)c2)C1` (centres undefined) the figure was 876 s; with `CN(C)S(=O)(=O)c1ccc(C(=O)N2CCC3(CC2)OCCS3)cc1`, 724 s.

The molecule `Cc1cccc(NC(=O)Nc2c(-c3cccc(C)c3)nc3ccccn23)c1` had an RP-LC retention time of 716 s. The figure for `CCOC(=O)c1ccc(NC(=O)Cn2c(N3CCOCC3)nc(CC)cc2=O)cc1` is 794 s; for `COc1ccc2cccc(NC(=O)c3ccsc3)c2n1` it is 1020 s; for `O=C1NC2(CCN(C(=O)Nc3ccc(Br)cc3)CC2)N=C1c1cccc(F)c1` it is 893 s. The figure for `COc1cc(Cl)ccc1C(=O)N1C[C@@H]2C[C@H](NC(=O)c3ccccc3)[C@H]1C2` is 759 s; for `COc1ccc(C2Cn3cnc(C(=O)N4CCC(C(=O)NCc5ccco5)CC4)c3CO2)cc1` (centres undefined) it is 698 s. For the molecule `CSc1ccc(NC(=O)Nc2cccc(-c3ccc(N4CCOCC4)nn3)c2)cc1`, the RP-LC retention time was 726 s. As for `Cc1ccc(-c2nc3cnccn3c2Nc2cc(C)cc(C)c2)cc1`, the RP-LC retention time was 1040 s. With `Cc1cc(NC(=O)c2ccccc2)nc(C)n1` the figure was 667 s; with `COc1ccc2c(c1)C1(CCN(C(=O)c3cccc(C)c3)C1)C(=O)N2` (centres undefined), 738 s. The figure for `COc1ccc(C(C)NC(=O)c2cc(NC(C)=O)cc3nc(C)ccc23)cc1OC` (centres undefined) is 599 s. With `Cc1cccc(NC(=O)C23CCC=C2N(C2CCCC2)C(=O)CC3)c1` (centres undefined) the figure was 952 s; with `O=C(Cc1nnc(-c2ccc3ncccc3c2)o1)Nc1cccc(C(F)(F)F)c1`, 802 s.

In turn, `Cc1noc(C)c1CC(=O)NCCc1noc(C2CC2)n1` showed an RP-LC retention time of 628 s. On to `COc1ccccc1OCCC1CCN(S(=O)(=O)c2c(C)nn(C)c2C)C1` (centres undefined), for which the RP-LC retention time was 861 s.

In turn, `COc1ccc(NC(=O)C2(C)Oc3cccnc3NC2=O)c(OC)c1` (centres undefined) gave an RP-LC retention time of 707 s. The figure for `O=C(Cn1cccc1-c1nc(-c2ccc(Cl)cc2)cs1)N1CCN(c2ncccn2)CC1` is 1100 s; for `CCn1c(=O)sc2cc(S(=O)(=O)N3CCC(C(=O)NC4CCCCCC4)CC3)ccc21` it is 937 s; for `O=C(Cc1cccc(C(F)(F)F)c1)Nc1cccn2c(C3CCC3)nnc12` it is 905 s.

The molecule `Cc1cc(C(=O)N2CCC3(CC2)NCc2ccccc2-n2ccnc23)nn1C` came in with an RP-LC retention time of 576 s. With `Cc1ccc(N2CC(c3noc(-c4ccc(C)c(C)c4)n3)CC2=O)cc1` (centres undefined) the figure was 1150 s. With `CCc1ccc(CNC(=O)C2CCCN(c3ccc(=O)n(-c4cccc(F)c4)n3)C2)cc1` (centres undefined) the figure was 937 s; with `C=CCn1nc2ccc(S(=O)(=O)N3CCCCC3)cn2c1=O`, 778 s. With `CCCn1cc(C(=O)NCc2ccc(F)cc2F)c(S(=O)(=O)N2CCC(C)CC2)n1` the figure was 1100 s; with `COc1ccc(-c2noc(-c3nc(Cc4ccccc4)no3)n2)cc1OC`, 1100 s.

For `CCC(C)NC(=O)Cn1c(=O)c2cnc(-c3ccc(Cl)cc3)nc2n(CC)c1=O` (centres undefined), the RP-LC retention time was determined as 740 s. With `Cc1c(C(=O)NCCN2CCOCC2)sc2ncn(CC(=O)N3CCCCC3C)c(=O)c12` (centres undefined) the figure was 598 s. The figure for `Cc1oc(C2CCN(C(=O)c3ccc(F)c(Cl)c3)CC2)nc1C(=O)N1CCCCC1` is 868 s. The figure for `CCN1C(=O)COc2ccc(-c3noc(CNC(=O)c4ccccc4)n3)cc21` is 802 s; for `Cn1c(=O)c(C(=O)NCc2ccccc2)nc2cccnc21` it is 735 s. `CCCCNC(=O)C1Cc2ccccc2CN1S(=O)(=O)c1ccccc1` (centres undefined): the RP-LC retention time was found to be 960 s.

Take `Cc1cc(C(=O)N2CCCCCC2c2nnc(C)o2)no1` (centres undefined): the RP-LC retention time was 698 s. Regarding `Cc1nn(CC(=O)NCCCN(C)C2CCCCC2)c(=O)c2nn(-c3ccccc3)c(C)c12`, the RP-LC retention time was 634 s. The figure for `CCOC(=O)C1=C(CN2CCN(c3ccccn3)CC2)NC(=O)NC1c1ccc(OC(C)C)cc1` (centres undefined) is 668 s; for `O=C(C1CCN(c2nc3ccc(-c4ccc(F)cc4)nc3s2)CC1)N1CCCCC1` it is 1080 s; for `CN(c1ccc(F)cc1)S(=O)(=O)N1CCCC(C(=O)N2CCN(c3ccccn3)CC2)C1` (centres undefined) it is 660 s. The figure for `O=C(CCc1cc2ccccc2[nH]c1=O)N1CCN(C(=O)c2ccco2)CC1` is 638 s; for `CCOC(=O)c1cc(C2CC2)nc2c1c(=O)n(Cc1ccccc1F)c(=O)n2C` it is 1140 s; for `Cc1noc(-c2ccnc(-n3ncc(C(=O)N4CCCCC4)c3C)c2)n1` it is 841 s. With `COc1ccc(-c2cc(N3CCN(C(=O)c4cccs4)CC3)n[nH]2)cc1` the figure was 714 s; with `CNC(=O)c1sc2nc(-c3cccc(F)c3)c(NCCCOC)n2c1C`, 777 s; with `Cc1cccc(C(=O)Nc2nc(-c3ccc4c(c3)N(C)C(=O)C(C)O4)cs2)c1` (centres undefined), 1050 s. As to `Cc1nnc(SCC(=O)N2CCOCC2)s1`, the RP-LC retention time came to 560 s.

For `COc1cc(CN2CC(N(Cc3ccncc3)S(C)(=O)=O)C2)cc(OC)c1`, the RP-LC retention time stood at 568 s. The figure for `CCCN(C)C(=O)c1cc2c(s1)N(CC1CC1)CCCC2` is 1160 s; for `CCC(=O)N1CCC2(CC1)NCc1ccccc1-n1ccnc12` it is 562 s; for `Cc1nc(-c2ccccc2)sc1C(=O)Nc1nc(-c2ccc(F)cc2)cs1` it is 1250 s. In turn, `COC(=O)C1=CN(c2cc(C)cc(C)c2)c2ccccc2S1(=O)=O` had an RP-LC retention time of 943 s. The figure for `CC(C)CC(=O)N1CCC(C(=O)N2CCCCCCNC(=O)CC2)CC1` is 640 s.
